Reference: PMC11649784, “Re-design and evaluation of diclofenac-based carborane-substituted prodrugs and their anti-cancer potential” (Scientific Reports, 2024)

Legend:
MC38, HCT116, and HT29 = assay: Viability assays, summary over the three cancer cell lines; assay type: cell-based; conditions: 72 h; for effect on cell viability: concentrations up to 100 μM
Procedure: (§1) In a preliminary test, the stability of all compounds dissolved in the cell medium (c = 100 μM, T = [drawing 47] ) for 72 h was validated by HPLC (see Supporting Information). Cell lines were incubated with the respective compounds in a concentration range of 1.56–100 μM for 72 h, and cell viability was measured using 3-(4,5-dimethylthiazol-2-yl)-2,5-diphenyltetrazolium bromide (MTT) and crystal violet (CV) assays. […] As MTT tests gave inconsistent results, possibly due to interference of the compound with mitochondrial respiration, for the further evaluation only the CV results are considered[97],[98].
(§2) After 72 h, cell viability was determined using MTT and CV tests. First, the supernatant from the wells was discarded and the cells were incubated with an MTT solution (0.5 mg mL^−1). After half an hour, the purple formazan crystals formed were dissolved in DMSO. For CV staining of the cells, the cells were fixed with 4 [drawing 157] PFA for 10 min and then stained with a 0.02 [drawing 158] CV solution for 15 min, all at room temperature (RT). The cells were then washed with tap water, air-dried and the dye was dissolved in 33 [drawing 159] acetic acid. For both viability tests, the absorbance of the developed colors was measured using an automated microplate reader at 570 nm with a reference wavelength of 670 nm. The results were expressed as a percentage of the control values of the untreated cells, which were arbitrarily set at 100 [drawing 160] . IC50 values, defined as 50 [drawing 161] inhibitory concentration, were calculated using a four-parameter logistic function and presented as mean±SD. All biological experiments were performed in triplicates. To evaluate the nature of the detected autophagy, a combined treatment with compound 3 and the autophagy inhibitors chloroquine (Chlq) and 3-methyladenine (3-MA) was carried out. […] After 72 h, cell viability was determined by CV assay.

HCT116 cells [1] = assay: Crystal violet (CV) viability assay, HCT116; assay type: cell-based, human; conditions: 72 h, mean±SD, read-out: IC50 [μM] (n = 3) HCT116 CV
Procedure: as §1
(§3) The biological study was performed on a murine colon adenocarcinoma cell line (MC38), two human colorectal carcinoma cell lines (HCT116 and HT29), and a human fetal lung fibroblast cell line (MRC-5). All cell lines are commercially available and were obtained from the American Type Culture Collection (ATCC). The human cell lines were kept in HEPES-buffered RPMI-1640 medium supplemented with 10 [drawing 141] heat-inactivated FCS, 2 mM L-glutamine, 0.01 [drawing 142] sodium pyruvate, penicillin (100 units mL^−1), and, streptomycin ( [drawing 143] mL^-1). The MC38 cell line was maintained in DMEM medium additionally supplemented with 1 [drawing 144] non-essential amino acids. Cells were grown at [drawing 145] in a humidified atmosphere with 5 [drawing 146] [drawing 147] . Peritoneal exudate cells (PECs) were isolated from healthy C57BL/6 mice (males, n = 3, 3 months old, weight 22–25 g) by performing an ice-cold PBS peritoneal lavage. Mice were sacrificed by cervical dislocation. Cells were cultivated for 4 h when nonadherent population was removed by washing in PBS, and additionally cultivated overnight in HEPES-buffered RPMI-1640 medium supplemented with 5 [drawing 148] heat-inactivated FCS before treatment with experimental drugs. Animal handling and protocol for isolation of PECs were performed according to European Union rules, and the ARRIVE guidelines 2.0.
(§4) For the viability tests, MC38, HCT116, and HT29 cells were seeded in 96-well plates at a density of 2 [drawing 149] 103, 5 [drawing 150] 103, and 6 [drawing 151] 10^3 cells/well, respectively. To determine whether the drug affected the viability of healthy, non-malignant cells, MRC-5 and PECs were seeded in 96-well plates at a density of 8 [drawing 152] 103 and 2 [drawing 153] 10^5 cells/well, respectively. For the flow cytometric analyses, MC38 cells were seeded in 6-well plates at 5 [drawing 154] 10^4 cells/well. For morphological assessment of nuclei and the detection of autophagy, MC38 cells were seeded in 2-well chamber slides at 1.5 [drawing 155] 10^4 cells/well.
as §2

MC38 cells [2] = assay: MTT viability assay, MC38; assay type: cell-based, murine; conditions: 72 h, mean±SD, read-out: IC50 [μM] (n = 3) MC38 MTT
Procedure: as §1, §3, §4, §2

HT29 cells [3] = assay: MTT viability assay, HT29; assay type: cell-based, human; conditions: 72 h, mean±SD, read-out: IC50 [μM] (n = 3) HT29 MTT
Procedure: as §1, §3, §4, §2

HT29 cells [4] = assay: Crystal violet (CV) viability assay, HT29; assay type: cell-based, human; conditions: 72 h, mean±SD, read-out: IC50 [μM] (n = 3) HT29 CV
Procedure: as §1, §3, §4, §2

HCT116 cells [5] = assay: MTT viability assay, HCT116; assay type: cell-based, human; conditions: 72 h, mean±SD, read-out: IC50 [μM] (n = 3) HCT116 MTT
Procedure: as §1, §3, §4, §2

[6] = Hydrolysis stability of the lactam in solution; assay type: physicochemical; conditions: several pH-levels, acids, bases, temperatures and solvents
From the text: To estimate the functionality as a prodrug and the stability of the oxindoles, we investigated the behavior in solution at several pH-levels, with different acids, bases, temperatures and solvents (see Supporting Information). […] The alkaline hydrolysis was successful with CsOH in a degassed 1:3 water-ethanol mixture at [drawing 29] , while acidic hydrolysis happened at [drawing 30] in 40% aqueous sulfuric acid with 2% acetic acid. Upon attempted isolation however, the lactam was re-formed within minutes as observed by [drawing 31] H and ^11B{ [drawing 32] H} NMR spectroscopy (see Supporting Information). […] The reclosing to the oxindole ring might be attributed to an increased nucleophilicity of the amino nitrogen atom stemming from its association to the carborane cluster via a cluster boron atom. This is supported by density functional theory (DFT) calculations (see Supporting Information).

MC38 cells [7] = assay: Crystal violet (CV) viability assay, MC38; assay type: cell-based, murine; conditions: 72 h, mean±SD, read-out: IC50 [μM] (n = 3) MC38 CV
Procedure: as §1, §3, §4, §2

human recombinant COX-2 = biological target: T1, human recombinant COX-2 (Homo sapiens, UniProt P35354); assay: COX Fluorescent Inhibitor Screening Assay, COX-2; assay type: biochemical; conditions: for COX inhibition, in words: in vitro COX assay, COX-1 and COX-2
T1 construct: purchased Cayman Chemical Company, Ann Arbor, MI, USA
T1 sequence (P35354 18-604): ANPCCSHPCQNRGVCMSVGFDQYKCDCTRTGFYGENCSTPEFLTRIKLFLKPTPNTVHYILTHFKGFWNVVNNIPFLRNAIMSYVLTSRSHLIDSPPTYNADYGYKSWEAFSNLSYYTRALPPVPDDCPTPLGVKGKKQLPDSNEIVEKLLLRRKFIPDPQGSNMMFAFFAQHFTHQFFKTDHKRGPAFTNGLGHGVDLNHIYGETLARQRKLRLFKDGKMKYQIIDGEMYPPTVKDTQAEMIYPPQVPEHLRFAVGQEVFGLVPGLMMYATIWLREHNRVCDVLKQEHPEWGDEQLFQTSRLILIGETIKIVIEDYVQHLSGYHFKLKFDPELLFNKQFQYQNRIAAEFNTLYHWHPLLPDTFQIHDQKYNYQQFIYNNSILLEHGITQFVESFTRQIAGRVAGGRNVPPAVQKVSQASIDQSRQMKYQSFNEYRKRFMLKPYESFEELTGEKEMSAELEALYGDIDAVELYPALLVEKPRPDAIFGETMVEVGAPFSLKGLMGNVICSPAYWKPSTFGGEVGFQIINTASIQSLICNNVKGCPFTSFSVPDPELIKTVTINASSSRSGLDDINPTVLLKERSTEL
Procedure: The COX inhibition activity against ovine COX-1 and human recombinant COX-2 was determined using the COX Fluorescent Inhibitor Screening Assay Kit (Cayman Chemical Company, Ann Arbor, MI, USA) according to the manufacturer’s instructions as reported.

[8] = in vivo ref 43, 44; cited from earlier work
Hep-G2 = conditions: cited from earlier work
[9] = buffer solutions at pH 1.2 and pH 7.4 and human serum ref 36, 43; cited from earlier work
[10] = cited from earlier work
[11] = tested on: MCF7, MiaPaCa-2, KB, HuTu80, L132, B16F10 and Molt4 cancer cells; set-up: method as in doi:10.1007/s00044-012-0309-2; conditions: cited from earlier work

Compound | effect on cell viability (MC38, HCT116, and HT29) | IC50 (HCT116 cells [1]) [µM] | IC50 (MC38 cells [2]) [µM] | IC50 (HT29 cells [3]) [µM] | IC50 (HT29 cells [4]) [µM] | IC50 (HCT116 cells [5]) [µM] | IC50 (MC38 cells [7]) [µM] | %Inh. @ 100 μM (n = 2) COX-2 (human recombinant COX-2) [%] | IC50 (HCT116 cells [1]; Homo sapiens, HCT-116) [µM] | IC50 (MC38 cells [2]; Mus musculus, MC-38) [µM] | IC50 (HT29 cells [3]; Homo sapiens, HT-29) [µM] | IC50 (HT29 cells [4]; Homo sapiens, HT-29) [µM] | IC50 (HCT116 cells [5]; Homo sapiens, HCT-116) [µM] | IC50 (MC38 cells [7]; Mus musculus, MC-38) [µM] | COX inhibition, in words (human recombinant COX-2) | other results
1-[2-(1,12-dicarba-closo-dodecaboranyl)]-1,3-dihydro-2H-indolin-2-one [p1] | no effect on cell viability | > 100 | > 100 | > 100 | > 100 | > 100 | > 100 | – | – | – | – | – | – | – | – | stability of the lactam towards hydrolysis [6]: extraordinarily stable towards hydrolysis
1-[9-(1,2-dicarba-closo-dodecaboranyl)]-1,3-dihydro-2H-indolin-2-one [o1] | no effect on cell viability | > 100 | > 100 | > 100 | > 100 | > 100 | > 100 | 14 | – | – | – | – | – | – | – | –
1-[9-(1,7-dicarba-closo-dodecaboranyl)]-1,3-dihydro-2H-indolin-2-one [m1] | no effect on cell viability | > 100 | > 100 | > 100 | > 100 | > 100 | > 100 | 19 | – | – | – | – | – | – | – | –
O=C1Cc2ccccc2N1c1c(Cl)cccc1Cl [CCF, 1-(2,6-dichlorophenyl)-1,3-dihydro-2H-indolin-2-one, reference compound] | – | – | – | – | – | – | – | – | 73.5 ± 3.9 | 32.6 ± 2.7 | 77.7 ± 5.5 | 74.4 ± 4.8 | 46.7 ± 2.4 | 75.1 ± 3.8 | no inhibition at all | IC50 (MC38, HCT116, and HT29; CV): ~74 µM; in vivo conversion to open-chain diclofenac [8]: hydrolysis of the lactam to form the open-chain diclofenac; IC50 (Hep-G2): 24.5 ± 1.11 µM; stability towards hydrolysis [9]: High stability towards hydrolysis; gastrotoxicity [10]: without causing gastrotoxicity; effect in initial in vitro tests on cancer cells [11]: no effect; inhibition at 100 µM (human recombinant COX-2; read-out: %Inh. @ 100 μM (n = 2) COX-2): 5%
O=C(O)Cc1ccccc1Nc1c(Cl)cccc1Cl [DCF, diclofenac] | no effect on cell viability | – | – | – | – | – | – | – | > 100 | > 100 | > 100 | > 100 | > 100 | > 100 | – | –
Sodium 1-[2-(7,8-dicarba-nido-undecaborate)]-1,3-dihydro-2H-indolin-2-one [compound 2] | no effect on cell viability | > 100 | > 100 | > 100 | > 100 | > 100 | > 100 | 56 | – | – | – | – | – | – | moderately active COX-inhibitors | IC50 (human recombinant COX-2; absolute IC50, 0.1 to 100 μM in duplicate, 95% CI in brackets): 58.5 µM
